Measurements reported in the OligoGym collection.
Oligonucleotides are given in HELM: sugar(base)linkage, 5' to 3'; d 2'-deoxyribose, r ribose, m 2'-O-methylribose, p phosphate. ss, as = sense and antisense strand

The substances below were run against UBE2K (assay: reporter assay of Huesken 2005). Conditions: siRNA.
Also: test concentration or dose not given here.

Substance	normalised inhibition (eCFP-eYFP dual reporter) [%]
RNA1{r(G)p.r(A)p.r(U)p.r(G)p.r(C)p.r(U)p.r(G)p.r(U)p.r(A)p.r(G)p.r(U)p.r(A)p.r(G)p.r(C)p.r(A)p.r(A)p.r(A)p.r(U)p.r(C)p.d(T)p.d(T)}|RNA2{r(G)p.r(A)p.r(U)p.r(U)p.r(U)p.r(G)p.r(C)p.r(U)p.r(A)p.r(C)p.r(U)p.r(A)p.r(C)p.r(A)p.r(G)p.r(C)p.r(A)p.r(U)p.r(C)p.d(C)p.d(T)}$$$RNA1{StrandType:ss}|RNA2{StrandType:as}$	65.5
RNA1{r(G)p.r(C)p.r(A)p.r(G)p.r(C)p.r(U)p.r(G)p.r(C)p.r(A)p.r(A)p.r(U)p.r(G)p.r(A)p.r(C)p.r(U)p.r(C)p.r(U)p.r(C)p.r(C)p.d(T)p.d(T)}|RNA2{r(G)p.r(G)p.r(A)p.r(G)p.r(A)p.r(G)p.r(U)p.r(C)p.r(A)p.r(U)p.r(U)p.r(G)p.r(C)p.r(A)p.r(G)p.r(C)p.r(U)p.r(G)p.r(C)p.d(C)p.d(C)}$$$RNA1{StrandType:ss}|RNA2{StrandType:as}$	47.4
RNA1{r(G)p.r(C)p.r(C)p.r(A)p.r(G)p.r(A)p.r(U)p.r(G)p.r(A)p.r(U)p.r(C)p.r(C)p.r(A)p.r(C)p.r(A)p.r(G)p.r(G)p.r(A)p.r(U)p.d(T)p.d(T)}|RNA2{r(A)p.r(U)p.r(C)p.r(C)p.r(U)p.r(G)p.r(U)p.r(G)p.r(G)p.r(A)p.r(U)p.r(C)p.r(A)p.r(U)p.r(C)p.r(U)p.r(G)p.r(G)p.r(C)p.d(T)p.d(C)}$$$RNA1{StrandType:ss}|RNA2{StrandType:as}$	74.9
RNA1{r(G)p.r(C)p.r(U)p.r(G)p.r(C)p.r(A)p.r(A)p.r(U)p.r(G)p.r(A)p.r(C)p.r(U)p.r(C)p.r(U)p.r(C)p.r(C)p.r(G)p.r(C)p.r(A)p.d(T)p.d(T)}|RNA2{r(U)p.r(G)p.r(C)p.r(G)p.r(G)p.r(A)p.r(G)p.r(A)p.r(G)p.r(U)p.r(C)p.r(A)p.r(U)p.r(U)p.r(G)p.r(C)p.r(A)p.r(G)p.r(C)p.d(T)p.d(G)}$$$RNA1{StrandType:ss}|RNA2{StrandType:as}$	87.1
RNA1{r(G)p.r(C)p.r(U)p.r(G)p.r(U)p.r(A)p.r(G)p.r(U)p.r(A)p.r(G)p.r(C)p.r(A)p.r(A)p.r(A)p.r(U)p.r(C)p.r(A)p.r(G)p.r(U)p.d(T)p.d(T)}|RNA2{r(A)p.r(C)p.r(U)p.r(G)p.r(A)p.r(U)p.r(U)p.r(U)p.r(G)p.r(C)p.r(U)p.r(A)p.r(C)p.r(U)p.r(A)p.r(C)p.r(A)p.r(G)p.r(C)p.d(A)p.d(T)}$$$RNA1{StrandType:ss}|RNA2{StrandType:as}$	87.4
RNA1{r(G)p.r(G)p.r(C)p.r(A)p.r(G)p.r(C)p.r(U)p.r(G)p.r(C)p.r(A)p.r(A)p.r(U)p.r(G)p.r(A)p.r(C)p.r(U)p.r(C)p.r(U)p.r(C)p.d(T)p.d(T)}|RNA2{r(G)p.r(A)p.r(G)p.r(A)p.r(G)p.r(U)p.r(C)p.r(A)p.r(U)p.r(U)p.r(G)p.r(C)p.r(A)p.r(G)p.r(C)p.r(U)p.r(G)p.r(C)p.r(C)p.d(C)p.d(A)}$$$RNA1{StrandType:ss}|RNA2{StrandType:as}$	57.6
RNA1{r(G)p.r(G)p.r(C)p.r(A)p.r(G)p.r(C)p.r(U)p.r(G)p.r(C)p.r(A)p.r(G)p.r(A)p.r(G)p.r(C)p.r(C)p.r(A)p.r(G)p.r(A)p.r(U)p.d(T)p.d(T)}|RNA2{r(A)p.r(U)p.r(C)p.r(U)p.r(G)p.r(G)p.r(C)p.r(U)p.r(C)p.r(U)p.r(G)p.r(C)p.r(A)p.r(G)p.r(C)p.r(U)p.r(G)p.r(C)p.r(C)p.d(A)p.d(A)}$$$RNA1{StrandType:ss}|RNA2{StrandType:as}$	81.8
RNA1{r(G)p.r(G)p.r(G)p.r(G)p.r(C)p.r(U)p.r(A)p.r(U)p.r(U)p.r(U)p.r(G)p.r(U)p.r(U)p.r(U)p.r(G)p.r(G)p.r(A)p.r(U)p.r(A)p.d(T)p.d(T)}|RNA2{r(U)p.r(A)p.r(U)p.r(C)p.r(C)p.r(A)p.r(A)p.r(A)p.r(C)p.r(A)p.r(A)p.r(A)p.r(U)p.r(A)p.r(G)p.r(C)p.r(C)p.r(C)p.r(C)p.d(T)p.d(G)}$$$RNA1{StrandType:ss}|RNA2{StrandType:as}$	81.2
RNA1{r(G)p.r(G)p.r(U)p.r(U)p.r(U)p.r(A)p.r(U)p.r(C)p.r(A)p.r(C)p.r(U)p.r(A)p.r(A)p.r(A)p.r(A)p.r(U)p.r(A)p.r(U)p.r(G)p.d(T)p.d(T)}|RNA2{r(C)p.r(A)p.r(U)p.r(A)p.r(U)p.r(U)p.r(U)p.r(U)p.r(A)p.r(G)p.r(U)p.r(G)p.r(A)p.r(U)p.r(A)p.r(A)p.r(A)p.r(C)p.r(C)p.d(G)p.d(G)}$$$RNA1{StrandType:ss}|RNA2{StrandType:as}$	81.2
RNA1{r(G)p.r(U)p.r(A)p.r(C)p.r(A)p.r(A)p.r(A)p.r(C)p.r(A)p.r(A)p.r(A)p.r(A)p.r(U)p.r(C)p.r(C)p.r(C)p.r(G)p.r(A)p.r(A)p.d(T)p.d(T)}|RNA2{r(U)p.r(U)p.r(C)p.r(G)p.r(G)p.r(G)p.r(A)p.r(U)p.r(U)p.r(U)p.r(U)p.r(G)p.r(U)p.r(U)p.r(U)p.r(G)p.r(U)p.r(A)p.r(C)p.d(T)p.d(G)}$$$RNA1{StrandType:ss}|RNA2{StrandType:as}$	73.9
RNA1{r(G)p.r(U)p.r(A)p.r(G)p.r(U)p.r(A)p.r(G)p.r(C)p.r(A)p.r(A)p.r(A)p.r(U)p.r(C)p.r(A)p.r(G)p.r(U)p.r(A)p.r(C)p.r(A)p.d(T)p.d(T)}|RNA2{r(U)p.r(G)p.r(U)p.r(A)p.r(C)p.r(U)p.r(G)p.r(A)p.r(U)p.r(U)p.r(U)p.r(G)p.r(C)p.r(U)p.r(A)p.r(C)p.r(U)p.r(A)p.r(C)p.d(A)p.d(G)}$$$RNA1{StrandType:ss}|RNA2{StrandType:as}$	92.1
RNA1{r(G)p.r(U)p.r(U)p.r(U)p.r(G)p.r(G)p.r(A)p.r(U)p.r(A)p.r(U)p.r(C)p.r(C)p.r(U)p.r(G)p.r(A)p.r(A)p.r(A)p.r(G)p.r(A)p.d(T)p.d(T)}|RNA2{r(U)p.r(C)p.r(U)p.r(U)p.r(U)p.r(C)p.r(A)p.r(G)p.r(G)p.r(A)p.r(U)p.r(A)p.r(U)p.r(C)p.r(C)p.r(A)p.r(A)p.r(A)p.r(C)p.d(A)p.d(A)}$$$RNA1{StrandType:ss}|RNA2{StrandType:as}$	87.1
RNA1{r(U)p.r(A)p.r(C)p.r(A)p.r(A)p.r(A)p.r(C)p.r(A)p.r(A)p.r(A)p.r(A)p.r(U)p.r(C)p.r(C)p.r(C)p.r(G)p.r(A)p.r(A)p.r(A)p.d(T)p.d(T)}|RNA2{r(U)p.r(U)p.r(U)p.r(C)p.r(G)p.r(G)p.r(G)p.r(A)p.r(U)p.r(U)p.r(U)p.r(U)p.r(G)p.r(U)p.r(U)p.r(U)p.r(G)p.r(U)p.r(A)p.d(C)p.d(T)}$$$RNA1{StrandType:ss}|RNA2{StrandType:as}$	66.1
RNA1{r(U)p.r(A)p.r(G)p.r(A)p.r(U)p.r(C)p.r(U)p.r(U)p.r(G)p.r(U)p.r(A)p.r(G)p.r(A)p.r(U)p.r(G)p.r(A)p.r(G)p.r(A)p.r(A)p.d(T)p.d(T)}|RNA2{r(U)p.r(U)p.r(C)p.r(U)p.r(C)p.r(A)p.r(U)p.r(C)p.r(U)p.r(A)p.r(C)p.r(A)p.r(A)p.r(G)p.r(A)p.r(U)p.r(C)p.r(U)p.r(A)p.d(C)p.d(T)}$$$RNA1{StrandType:ss}|RNA2{StrandType:as}$	85.7
RNA1{r(U)p.r(A)p.r(G)p.r(U)p.r(A)p.r(G)p.r(C)p.r(A)p.r(A)p.r(A)p.r(U)p.r(C)p.r(A)p.r(G)p.r(U)p.r(A)p.r(C)p.r(A)p.r(A)p.d(T)p.d(T)}|RNA2{r(U)p.r(U)p.r(G)p.r(U)p.r(A)p.r(C)p.r(U)p.r(G)p.r(A)p.r(U)p.r(U)p.r(U)p.r(G)p.r(C)p.r(U)p.r(A)p.r(C)p.r(U)p.r(A)p.d(C)p.d(A)}$$$RNA1{StrandType:ss}|RNA2{StrandType:as}$	87.9
RNA1{r(U)p.r(A)p.r(U)p.r(U)p.r(G)p.r(U)p.r(C)p.r(A)p.r(U)p.r(U)p.r(G)p.r(C)p.r(A)p.r(A)p.r(G)p.r(C)p.r(A)p.r(C)p.r(U)p.d(T)p.d(T)}|RNA2{r(A)p.r(G)p.r(U)p.r(G)p.r(C)p.r(U)p.r(U)p.r(G)p.r(C)p.r(A)p.r(A)p.r(U)p.r(G)p.r(A)p.r(C)p.r(A)p.r(A)p.r(U)p.r(A)p.d(A)p.d(T)}$$$RNA1{StrandType:ss}|RNA2{StrandType:as}$	89.2
RNA1{r(U)p.r(C)p.r(C)p.r(A)p.r(G)p.r(A)p.r(C)p.r(A)p.r(C)p.r(A)p.r(C)p.r(C)p.r(A)p.r(U)p.r(A)p.r(U)p.r(G)p.r(A)p.r(A)p.d(T)p.d(T)}|RNA2{r(U)p.r(U)p.r(C)p.r(A)p.r(U)p.r(A)p.r(U)p.r(G)p.r(G)p.r(U)p.r(G)p.r(U)p.r(G)p.r(U)p.r(C)p.r(U)p.r(G)p.r(G)p.r(A)p.d(G)p.d(G)}$$$RNA1{StrandType:ss}|RNA2{StrandType:as}$	73.9
RNA1{r(U)p.r(C)p.r(C)p.r(G)p.r(G)p.r(U)p.r(U)p.r(U)p.r(A)p.r(U)p.r(C)p.r(A)p.r(C)p.r(U)p.r(A)p.r(A)p.r(A)p.r(A)p.r(U)p.d(T)p.d(T)}|RNA2{r(A)p.r(U)p.r(U)p.r(U)p.r(U)p.r(A)p.r(G)p.r(U)p.r(G)p.r(A)p.r(U)p.r(A)p.r(A)p.r(A)p.r(C)p.r(C)p.r(G)p.r(G)p.r(A)p.d(C)p.d(C)}$$$RNA1{StrandType:ss}|RNA2{StrandType:as}$	73
RNA1{r(U)p.r(C)p.r(U)p.r(U)p.r(G)p.r(U)p.r(A)p.r(G)p.r(A)p.r(U)p.r(G)p.r(A)p.r(G)p.r(A)p.r(A)p.r(U)p.r(U)p.r(U)p.r(U)p.d(T)p.d(T)}|RNA2{r(A)p.r(A)p.r(A)p.r(A)p.r(U)p.r(U)p.r(C)p.r(U)p.r(C)p.r(A)p.r(U)p.r(C)p.r(U)p.r(A)p.r(C)p.r(A)p.r(A)p.r(G)p.r(A)p.d(T)p.d(C)}$$$RNA1{StrandType:ss}|RNA2{StrandType:as}$	84.4
RNA1{r(U)p.r(G)p.r(A)p.r(A)p.r(A)p.r(G)p.r(A)p.r(U)p.r(C)p.r(A)p.r(A)p.r(U)p.r(G)p.r(G)p.r(G)p.r(C)p.r(A)p.r(G)p.r(C)p.d(T)p.d(T)}|RNA2{r(G)p.r(C)p.r(U)p.r(G)p.r(C)p.r(C)p.r(C)p.r(A)p.r(U)p.r(U)p.r(G)p.r(A)p.r(U)p.r(C)p.r(U)p.r(U)p.r(U)p.r(C)p.r(A)p.d(G)p.d(G)}$$$RNA1{StrandType:ss}|RNA2{StrandType:as}$	57.3
